Reference: patent publication US20040242459A1 (priority 2001, published 2004)
Values joined by “and” are separate entries in the source; they are usually repeats but may differ in a detail not shown here. Identical values can stand only once.

How the values were obtained:
[1] = molecular target: T1, recombinant human PPARα (GST-PPARα) (Homo sapiens, UniProt Q07869); assay: Scintillation Proximity Assay, displacement of [3H2]Compound A from PPARα; format: binding; details: human PPARα binding; read-out: IC50 (μM: SPA or BND) Alpha
T1 construct: The full length human cDNAs for PPARδ and PPARα were subcloned into the pGEX-KT expression vector; made in house; host or cells: E. coli
T1 sequence (Q07869 1-468): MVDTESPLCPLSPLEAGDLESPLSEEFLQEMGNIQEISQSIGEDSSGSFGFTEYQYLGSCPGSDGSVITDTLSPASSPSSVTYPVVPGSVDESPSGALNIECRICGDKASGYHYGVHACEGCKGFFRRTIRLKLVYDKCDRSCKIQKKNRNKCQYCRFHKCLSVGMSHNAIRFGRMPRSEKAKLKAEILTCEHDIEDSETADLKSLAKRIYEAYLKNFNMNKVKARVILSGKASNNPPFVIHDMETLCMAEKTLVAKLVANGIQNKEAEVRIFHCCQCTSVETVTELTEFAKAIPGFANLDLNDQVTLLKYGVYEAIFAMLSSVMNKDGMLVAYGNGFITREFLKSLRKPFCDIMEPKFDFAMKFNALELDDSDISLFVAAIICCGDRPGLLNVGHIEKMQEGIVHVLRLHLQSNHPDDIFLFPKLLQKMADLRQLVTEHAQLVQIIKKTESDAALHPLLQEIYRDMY
Description: (§1) As an approach to identifying human PPAR agonists, a Scintillation Proximity Assay was used to characterize PPAR-γ, PPAR-δ, and PPAR-α ligands.
(§2) Human PPARγ2, human PPARδ and human PPARα were expressed as GST-fusion proteins in E. coli. The full length human cDNA for PPARγ 2 was subcloned into the pGEX-2 T expression vector (Amersham Pharmacia Biotech, Inc.). The full length human cDNAs for PPARδ and PPARα were subcloned into the pGEX-KT expression vector (Amersham Pharmacia Biotech, Inc.). E. coli containing the respective plasmids were propagated, induced, and harvested by centrifugation. The resuspended pellet was broken in a French press and debris removed by centrifugation. Recombinant human PPAR receptors were purified by affinity chromatography on glutathione sepharose. After application to the column, and one wash, receptor was eluted with glutathione. Glycerol (10%) was added to stabilize the receptor and aliquots were stored at −80° C.
(§3) After incubation for ˜16 h at 15° C. with shaking, the assay plates were counted in a Packard Topcount with quench correction.

[2] = molecular target: T2, recombinant human PPARγ (GST-PPARγ) (Homo sapiens, UniProt P37231); assay: Scintillation Proximity Assay, displacement of [3H2]Compound A from PPARγ; format: binding; details: human PPARγ binding; read-out: IC50 (μM: SPA or BND) Gamma
T2 construct: The full length human cDNA for PPARγ 2 was subcloned into the pGEX-2 T expression vector; made in house; host or cells: E. coli
T2 sequence (P37231 1-505): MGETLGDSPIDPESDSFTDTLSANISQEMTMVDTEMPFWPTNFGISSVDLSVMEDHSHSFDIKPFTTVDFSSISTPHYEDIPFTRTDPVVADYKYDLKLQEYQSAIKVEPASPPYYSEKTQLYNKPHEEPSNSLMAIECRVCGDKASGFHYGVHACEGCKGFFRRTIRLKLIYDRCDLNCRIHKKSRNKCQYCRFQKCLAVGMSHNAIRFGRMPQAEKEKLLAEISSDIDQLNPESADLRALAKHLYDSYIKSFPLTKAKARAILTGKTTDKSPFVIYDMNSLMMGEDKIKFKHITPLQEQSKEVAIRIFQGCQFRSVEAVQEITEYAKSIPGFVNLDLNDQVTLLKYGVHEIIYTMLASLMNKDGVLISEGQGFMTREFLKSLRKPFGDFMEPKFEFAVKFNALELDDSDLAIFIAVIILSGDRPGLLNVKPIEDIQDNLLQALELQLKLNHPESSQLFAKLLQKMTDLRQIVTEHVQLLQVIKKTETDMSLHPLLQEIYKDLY
Description: as §1, §2, §3

hPPARα/GAL4 = molecular target: T3, hPPARα/GAL4 (Homo sapiens, UniProt Q07869); assay: Gal-4 hPPAR transactivation assay in COS-1 cells (alpha); format: cell-based; details: two values separated by a slash in some cells
T3 construct: expressed in transfected cells; host or cells: COS-1 cells
Method: (§4) The chimeric receptor expression constructs, pcDNA3-hPPARγ/GAL4, pcDNA3-hPPARδ/GAL4, pcDNA3-hPPARα/GAL4 were prepared by inserting the yeast GAL4 transcription factor DBD adjacent to the ligand binding domains (LBDs) of hPPARγ, hPPARδ, hPPARα, respectively. The reporter construct, pUAS(5×)-tk-luc was generated by inserting 5 copies of the GAL4 response element upstream of the herpes virus minimal thymidine kinase promoter and the luciferase reporter gene. pCMV-lacZ contains the galactosidase Z gene under the regulation of the cytomegalovirus promoter. COS-1 cells were seeded at 12×10^3 cells/well in 96 well cell culture plates in high glucose Dulbecco's modified Eagle medium (DMEM) containing 10% charcoal stripped fetal calf serum (Gemini Bio-Products, Calabasas, Calif.), nonessential amino acids, 100 units/ml Penicillin G and […] Streptomycin sulfate at 37° C. in a humidified atmosphere of 10% CO2. After 24 h, transfections were performed with Lipofectamine (GIBCO BRL, Gaithersburg, Md.) according to the instructions of the manufacturer. […] Luciferase activity in cell extracts was determined using Luciferase Assay Buffer (Promega, Madison, Wis.) in an ML3000 luminometer (Dynatech Laboratories, Chantilly, Va.). β-galactosidase activity was determined using β-D-galactopyranoside (Calbiochem, San Diego, Calif.).

hPPARδ/GAL4 = molecular target: T4, hPPARδ/GAL4 (Homo sapiens, UniProt Q03181); assay: Gal-4 hPPAR transactivation assay in COS-1 cells (delta); format: cell-based; details: two values separated by a slash in some cells
T4 construct: expressed in transfected cells; host or cells: COS-1 cells
Method: as §4

hPPARγ/GAL4 = molecular target: T5, hPPARγ/GAL4 (Homo sapiens, UniProt P37231); assay: Gal-4 hPPAR transactivation assay in COS-1 cells (gamma); format: cell-based; details: two values separated by a slash in some cells
T5 construct: expressed in transfected cells; host or cells: COS-1 cells
Method: as §4

[3] = tested on: PPAR-α, PPAR-γ and PPAR-δ; assay: Classification of ligands according to their PPAR activity (Table A); design: species or system human; details: classification based on IC50 and EC50 data of Table B

T5 sequence (P04386 1-147 partner limits assumed, one chain of several): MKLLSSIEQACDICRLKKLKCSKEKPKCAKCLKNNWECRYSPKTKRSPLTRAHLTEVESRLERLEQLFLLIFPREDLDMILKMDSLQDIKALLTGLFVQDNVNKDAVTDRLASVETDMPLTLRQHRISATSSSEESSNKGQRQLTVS
T3 sequence (P04386 1-147 partner limits assumed, one chain of several): as above
T4 sequence (Q03181 211-439 limits assumed): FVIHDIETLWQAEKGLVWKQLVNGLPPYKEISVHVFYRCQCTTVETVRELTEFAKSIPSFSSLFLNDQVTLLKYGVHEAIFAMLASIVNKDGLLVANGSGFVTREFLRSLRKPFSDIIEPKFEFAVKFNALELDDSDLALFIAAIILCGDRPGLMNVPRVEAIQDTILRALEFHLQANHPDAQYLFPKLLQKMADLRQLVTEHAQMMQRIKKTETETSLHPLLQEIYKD
T4 sequence (P04386 1-147 partner limits assumed): as the sequence (P04386 1-147 partner limits assumed, one chain of several) above

CCCc1cc(Oc2ccccc2)ccc1OCCc1cc2cc(CC(=O)O)ccc2[nH]1 [Compound 2, {2-[2-(4-phenoxy-2-propylphenoxy)ethyl]-1H-indol-5-yl}acetic acid]
IC50 [1]: 1.48 µM | IC50 [2]: 0.097 µM | EC50 (hPPARα/GAL4): 1.05 µM and 1.2 µM | EC50 (hPPARδ/GAL4): 3 µM | EC50 (hPPARγ/GAL4): 0.18 µM and 0.05 µM | PPAR Activity [3]: Gamma Agonist
